Experimental data published in patent publication US20250073255A1, “USE OF FA-TYPE LIPID COMPOUNDS IN PREPARATION OF NUCLEIC ACID DELIVERY REAGENT AND RELATED PRODUCT” (BEIJING BAISHIKANG PHARMACEUTICAL TECHNOLOGY (BSJPHARMA) …, priority 2021, published 2025).

Tested on: C57BL/6 male mice
Assay: In vivo delivery study of lipid nucleic acid mixture (oral gavage, RT-qPCR of PGY-sRNA-26 in tissues)
Parameters: species or system mouse
Settings: for oral delivery of single-stranded sRNA nucleic acids into mouse blood / oral delivery of single-stranded sRNA nucleic acids into mouse brain tissue / oral delivery of single-stranded sRNA nucleic acids into mouse femur / oral delivery of single-stranded sRNA nucleic acids into mouse heart tissue / oral delivery of single-stranded sRNA nucleic acids into mouse intestinal tissue / oral delivery of single-stranded sRNA nucleic acids into mouse liver tissue / oral delivery of single-stranded sRNA nucleic acids into mouse lung tissue / oral delivery of single-stranded sRNA nucleic acids into mouse spleen tissue / oral delivery of single-stranded sRNA nucleic acids into mouse kidney tissue / oral delivery of single-stranded sRNA nucleic acids into mouse stomach tissue / oral delivery of single-stranded sRNA nucleic acids into mouse pancreatic tissue: 100 μg lipid:10 nmol PGY-sRNA-26, sampled after 12 hours; for oral delivery of single-stranded sRNA nucleic acids into mouse heart tissue: vs free uptake group; for oral delivery of single-stranded sRNA nucleic acids into mouse intestinal tissue: intestine; for overall delivery efficacy: delivering nucleic acids into each tissue and blood tested: 100 μg lipid:10 nmol PGY-sRNA-26, all tissues and blood tested; for oral delivery of single-stranded sRNA nucleic acids into mouse pancreatic tissue: pancreas
Experimental: 10 nmol of small RNA (as shown in Table 2) was dissolved in 400 μl of DEPC-treated water in a glass tube, 10 μl of the corresponding lipid stock solution was added such that the lipid mass in the system was 100 μg. The mixture was mixed thoroughly, heated in a 90° C. water bath for 15 minutes, and then cooled naturally to obtain the lipid nucleic acid mixture of lipid and small RNA.
C57BL/6 male mice, approximately 6 weeks old, weighing […], were obtained from Beijing Vital River Laboratory Animal Technology Co., Ltd. The mice were housed in the SPF-grade animal facility at the Animal Center of the Institute of Basic Medical Sciences, Chinese Academy of Medical Sciences. The mice were fasted for 12 hours before gavage administration.
The lipid nucleic acid mixture was prepared following the method described in Example 2. The resultant lipid nucleic acid mixture was orally administered to each mouse at a dose of 100 μg lipid:10 nmol single-stranded 3-methylated small RNA PGY-sRNA-26.
• 1) Blank group (n=4): mice were administered with 500 μl saline by gavage, this group served as a blank control; • 2) Free uptake group (n=4): mice were directly administered with small RNA PGY-sRNA-26 solution (10 nmol/mouse, 500 l) by gavage, this group served as a negative control; • 3) Lipid-treated group (n=4): mice were administered with 500 μl lipid nucleic acid mixture prepared in step 2 by gavage.
After 12 hours of gavage administration, 500 μl blood from the eyeball of each mouse was sampled, added to 1.5 ml Trizol Reagent LS (purchased from Invitrogen), thoroughly mixed for lysis. 3 ml of Trizol Reagent LSwas added to tissue samples and homogenized for complete lysis, wherein the sampled tissues include heart, liver, spleen, lung, kidney, stomach, intestine, brain, blood, femur, pancreas. RNAwas extracted from 1 ml of the blood or the tissue lysate following the steps below: • Centrifuge at 4° C., 12,000 rpm for 5 min, discard the precipitate, transfer Trizol to a new centrifuge tube; • Add chloroform at 200 μL chloroform/mL Trizol, shake well, stand at room temperature for 5 min; • Centrifuge at 4° C., 12,000 rpm for 15 min; • Take the upper aqueous phase to another centrifuge tube, add isopropanol at 0.4 mL isopropanol/mL Trizol, mix well, and stand at low temperature for 10-20 min; • Centrifuge at 4° C., 12,000 rpm for 15 min, discard the supernatant, RNA precipitated at the bottom of the tube; • Add 1 mL of 75% ethanol, gently shake the centrifuge tube, suspend the precipitate; • Centrifuge at 4° C., 12,000 rpm for 15 min, discard the supernatant, add 1 mL of 75% ethanol, gently shake the centrifuge tube, suspend the precipitate; • Centrifuge at 4° C., 12,000 rpm for 15 min, discard the supernatant, air-dry at room temperature, dissolve RNA samples in 50 μL RNase-free H2O, measure OD value to quantify RNA concentration. 3.3 Reverse Transcription of sRNA to cDNA:
sRNA was reverse transcribed to cDNA using the High-Capacity cDNA Reverse Transcription Kit (Applied Biosystems, cat. no. 4368813) by stem-loop method (see, e.g., “Real-time quantification of microRNAs by stem-loop RT-PCR, Nucleic Acids Res. 2005 Nov. 27; 33(20):e179”, incorporated herein by reference). The reverse transcription system is as follows: Template RNA (200 ng/μL) 10 μL, 10×RT Buffer 2.0 μL, 25×dNTP Mix (100 mM) 0.8 μL, U6 RT stem-loop primer (10 μM) 2.0 μL, PGY-sRNA-26 RT stem-loop primer (10 μM) 2.0 μL, MultiScribe™ Reverse Transcriptase (50 U/μL) 1.0 μL, RNAse Inhibitor (40 U/μL) 1.0 μL, nuclease-free H2O 1.2 μL. After transient centrifugation, the reverse transcription system was placed in a PCR machine with the following reaction conditions: (1) 25° C., 10 min; (2) 37° C., 120 min; (3) 85° C., 5 min; (4) 4° C., stop reaction. After the reaction, add 20 μL RNAse-free ddH2O, adjust the final volume to 40 μL. […]

Row | SMILES | oral delivery of single-stranded sRNA nucleic acids into mouse blood | oral delivery of single-stranded sRNA nucleic acids into mouse brain tissue | oral delivery of single-stranded sRNA nucleic acids into mouse femur | oral delivery of single-stranded sRNA nucleic acids into mouse heart tissue | oral delivery of single-stranded sRNA nucleic acids into mouse intestinal tissue | oral delivery of single-stranded sRNA nucleic acids into mouse liver tissue | oral delivery of single-stranded sRNA nucleic acids into mouse lung tissue | oral delivery of single-stranded sRNA nucleic acids into mouse spleen tissue | oral delivery of single-stranded sRNA nucleic acids into mouse kidney tissue | oral delivery of single-stranded sRNA nucleic acids into mouse stomach tissue | overall delivery efficacy: delivering nucleic acids into each tissue and blood tested | oral delivery of single-stranded sRNA nucleic acids into mouse pancreatic tissue
1 | CCCCCC1C(=O)CCC1CC(=O)O (stereo not shown) [Lipid 616, 2-(3-oxo-2-pentylcyclopentyl)-acetic acid] | can effectively orally deliver | can effectively orally deliver | can effectively orally deliver | can effectively orally deliver | can effectively orally deliver | can effectively orally deliver | can effectively orally deliver | can effectively orally deliver | – | – | – | –
2 | O=C(O)C/C=C/CC(=O)O [Lipid 607, (E)-hex-3-enedioic acid] | can effectively orally deliver | – | can effectively orally deliver | can effectively orally deliver | – | can effectively orally deliver | – | – | can effectively orally deliver | can effectively orally deliver | – | –
3 | CC/C=C/CC1C(=O)CCC1CC(=O)OC (stereo not shown) [Lipid 501] | can effectively orally deliver | can effectively orally deliver | – | can effectively orally deliver | can effectively orally deliver | can effectively orally deliver | can effectively orally deliver | can effectively orally deliver | can effectively orally deliver | can effectively orally deliver | best delivery efficacy | –
4 | CCCCCC/C=C\CCCCCCCC(=O)OCCCCCCCCCCCCCCC [Lipid 821, pentadecyl (Z)-hexadec-9-enoate] | can effectively orally deliver | can effectively orally deliver | can effectively orally deliver | can effectively orally deliver | can effectively orally deliver | can effectively orally deliver | can effectively orally deliver | can effectively orally deliver | can effectively orally deliver | can effectively orally deliver | – | can effectively orally deliver
5 | NC(CCCC(=O)O)C(=O)O (stereo not shown) [Lipid 530, 2-aminohexanedioic acid] | can effectively orally deliver | can effectively orally deliver | can effectively orally deliver | can effectively orally deliver | can effectively orally deliver | can effectively orally deliver | can effectively orally deliver | can effectively orally deliver | can effectively orally deliver | can effectively orally deliver | best delivery efficacy | –
6 | CCCCC/C=C\C/C=C\C/C=C\C/C=C\C/C=C\CCC(=O)O [Lipid 542, (4Z,7Z,10Z,13Z,16Z)-docosa-4,7,10,13,16-pentaenoic acid] | can effectively orally deliver | can effectively orally deliver | can effectively orally deliver | can effectively orally deliver | can effectively orally deliver | can effectively orally deliver | can effectively orally deliver | can effectively orally deliver | can effectively orally deliver | can effectively orally deliver | best delivery efficacy | –
7 | CCCCC/C=C\C/C=C\C/C=C\C/C=C\CCCC(=O)NCCCCCO [Lipid 807, (5Z,8Z,11Z,14Z)-N-(5-hydroxypentyl)icosa-5,8,11,14-tetraenamide] | can effectively orally deliver | can effectively orally deliver | can effectively orally deliver | can effectively orally deliver | can effectively orally deliver | can effectively orally deliver | can effectively orally deliver | can effectively orally deliver | can effectively orally deliver | can effectively orally deliver | – | can effectively orally deliver
8 | CCCCCC(=O)/C=C/C=O [Lipid 525, (E)-4-oxonon-2-enal] | – | – | – | – | can effectively orally deliver | – | can effectively orally deliver | can effectively orally deliver | can effectively orally deliver | can effectively orally deliver | – | –
